The values below are quoted from earlier work in patent US7148216B2, “Combinations of drugs for the treatment of neoplastic disorders” (CombinatoRx, Inc., priority 2000, dated 2006).

Where two headings read alike, the source gives them in different places.

For the compound `N=C(N)c1ccc(OCCCCCOc2ccc(C(=N)N)cc2)cc1` [pentamidine isethionate, 4,4′-diamidino-diphenoxypentane di(β-hydroxyethanesulfonate)], the solubility result was “insoluble” (in ether, acetone, and chloroform); “soluble” (in water and glycerin).
